Details of series [1]: species or system humans. Conditions: human, in vivo, po, 480 min. The source says: In humans, oral administration of the cephalosporin derivatives according to the present invention led to urinary recovery of the corresponding unesterified cephalosporins at the recovery rates shown below in the table. Method of administration: A 125-mg (on the unesterified form basis) capsule was orally administered. Assay: Microbial method using Bacillus subtilis

A short description of series [2]: Acute toxicity testing, oral, in mice. Conditions: mouse, in vivo, aqueous solution, male ICR mice 5 weeks of age, n=3. The method, then: The results obtained in oral acute toxicity testing of the cephalosporin derivatives according to the present invention in mice are shown below.
Animals: Male mice (ICR, 5 weeks of age), n=3
Method of administration: The cephalosporin derivatives obtained in the above examples were dissolved in distilled water and the aqueous solutions were orally administered.

Results on seven molecules are retold here after patent US4605651A, “Antibiotic amino acid derivatives of cephalosporins” (Kyoto Pharmaceutical Industries, Ltd., priority 1982, dated 1986).

Where a name gives a salt, the structure may show the parent alone.

As for `Cn1nnnc1SCC1=C(C(=O)OCOC(=O)C(C)(C)C)N2C(=O)C(NC(=O)[C@H](OC(=O)CN)c3ccccc3)C2SC1` (stereo partly drawn) [Example 1, pivaloyloxymethyl 7-[D-O-(glycyl)mandelamido]-3-[(1-methyl-1H-tetrazol-5-yl)thiomethyl]-3-cephem-4-carboxylate hydrochloride], in series [1], the “Percent urinary recovery (Hour 0 to Hour 8)” value (shortened to “Percent urinary recovery”) was determined as 38.0%. In addition, the LD50 in series [2] is 5000 mg/kg.

For the molecule `CC(=O)OC(C)OC(=O)C1=C(CSc2nnc(C)s2)CSC2C(NC(=O)[C@H](OC(=O)[C@H](C)N)c3ccccc3)C(=O)N12` (stereo partly drawn) [Example 2, 1-acetoxyethyl 7-[D-O-(L-alanyl)mandelamido]-3-[(5-methyl-1,3,4-thiadiazol-2-yl)thiomethyl]-3-cephem-4-carboxylate hydrochloride], the “Percent urinary recovery” value in series [1] was determined as 35.2%.

Turning to `CCOC(=O)OC(C)OC(=O)C1=C(CSc2nncs2)CSC2C(NC(=O)[C@H](OC(=O)[C@H](C)N)c3ccccc3)C(=O)N12` (stereo partly drawn) [Example 3, 1-ethoxycarbonyloxyethyl 7-[D-O-(L-alanyl)mandelamido]-3-[(1,3,4-thiadiazol-2-yl)thiomethyl]-3-cephem-4-carboxylate], the “Percent urinary recovery” value in series [1] is listed as 37.0%.

Regarding `Cc1nnc(SCC2=C(C(=O)OCOC(=O)C(C)(C)C)N3C(=O)C(NC(=O)[C@H](OC(=O)[C@@H](N)C(C)C)c4ccccc4)C3SC2)s1` (stereo partly drawn) [Example 6, Pivaloyloxymethyl 7-[D-O-(L-valyl)mandelamido]-3-[(5-methyl-1,3,4-thiadiazol-2-yl)thiomethyl]-3-cephem-4-carboxylate hydrochloride], the “Percent urinary recovery” value in series [1] is recorded as 36.0%.

For the molecule `Cc1nnc(SCC2=C(C(=O)OCOC(=O)C(C)(C)C)N3C(=O)C(NC(=O)[C@H](OC(=O)[C@@H]4CCCN4)c4ccccc4)C3SC2)s1` (stereo partly drawn) [Example 7, Pivaloyloxymethyl 7-[D-O-(L-prolyl)mandelamido]-3-[(5-methyl-1,3,4-thiadiazol-2-yl)thiomethyl]-3-cephem-4-carboxylate hydrochloride], in series [1], the “Percent urinary recovery” value was 41.0%. Besides, in series [2], the LD50 was determined as 5000 mg/kg.

For the molecule `Cc1nnc(SCC2=C(C(=O)OCc3oc(=O)oc3C)N3C(=O)C(NC(=O)[C@H](OC(=O)[C@H](C)N)c4ccccc4)C3SC2)s1` (stereo partly drawn) [Example 9, (5-Methyl-1,3-dioxolen-2-on-4-ylmethyl) 7-[D-O-(L-alanyl)mandelamido]-3-[(5-methyl-1,3,4-thiadiazol-2-yl)thiomethyl]-3-cephem-4-carboxylate hydrochloride], in series [1], the “Percent urinary recovery” value worked out at 41.0%. The same molecule returned an LD50 in series [2] of 5000 mg/kg.

`CC(=O)OC(C)OC(=O)C1=C(CSc2nnc(C)s2)CSC2C(NC(=O)[C@H](OC(=O)[C@@H]3CCCN3)c3ccccc3)C(=O)N12` (stereo partly drawn) [Example 17, 1-Acetoxyethyl 7-[D-O-(L-prolyl)mandelamido]-3-[(5-methyl-1,3,4-thiadiazol-2-yl)thiomethyl]-3-cephem-4-carboxylate hydrochloride]: the “Percent urinary recovery” value in series [1] was 40.9%. The molecule also displayed an LD50 in series [2] of 5000 mg/kg.
